The numbers were not newly measured in patent US20150299754A1, “STREPTOMYCES MICROFLAVUS STRAINS AND METHODS OF THEIR USE TO CONTROL PLANT DISEASES AND PESTS” (Bayer CropScience LP, priority 2014, published 2015), which cites them from elsewhere.

One series concerns powdery mildew. Particulars: according to GB 1 507 193.
For series [1], the system named is parasites on animals, such as pin worm. Particulars: according to U.S. Pat. No. 3,849,398.
The test system of series [2] is gram-positive, gram-negative bacteria and tubercule bacillus. As to conditions: according to U.S. Pat. No. 3,849,398.

Take `NC(N)=NCC(O)CC(O)(C(=O)O)[C@H]1O[C@@H](n2cc(CO)c(N)nc2=O)C=C[C@@H]1NC(=O)[C@@H](N)CO` (stereo partly drawn) [B-98891]: the “antifungal activity against powdery mildew” value with powdery mildew was “antifungal activity”.
Regarding `CNCC(=O)NC(CO)C(=O)NC1C(C(N)=O)OC(n2ccc(N)nc2=O)C(O)C1O` (stereo not drawn) [gougerotin], the parasiticidal action entry in series [1] is “parasiticidal action”. Moreover, the antibacterial activity result in series [2] is given as “weak antibacterial activity”.
